Laboratory results published in patent US20060147549A1, “Methods and compositions for reducing population of plant pathogen” (priority 2004, published 2006).

Tested on: citrus canker microbe (Xanthomonas axonopodis pv citri)
Test: Nursery experiment: compositions sprayed on fruit bearing citrus trees inoculated with citrus canker microbe
Assay type: in vivo
Protocol: In a nursery experiment, three antimicrobial compositions and a control composition were tested for activity against citrus canker microbe. The compositions were sprayed on fruit bearing citrus trees that had been inoculated with citrus canker microbe (Xanthomonas axonopodis pv citri). In these experiments composition A was the metal antimicrobial agent and poly(hexamethyl biguanide) composition and composition B was this composition plus copper ion.
The composition of metal antimicrobial agent and poly(hexamethyl biguanide) as used in compositions A and B included: water ([…]), poly(hexamethyl biguanide) (0.6 wt-%), and silver iodide (0.02 wt-%) Triton X-100 (2 wt-%), Tectronic 1107 (1.2 wt-%), 1-methyl-2-pyrrolidinone (0.3 wt-%), and ethanol (2.8 wt-%).
The antimicrobial composition was applied periodically and the plants were challenged with citrus canker microbe.

Substance: Copper
- % OF HEALTHY LEAVES (Date 1): 82%
- % OF LEAVES WITH CANKER (Date 1): 22.2%
- % OF HEALTHY LEAVES (Date 2): 80.7%
- % OF LEAVES WITH CANKER (Date 2): 18%
- % OF HEALTHY LEAVES (Date 4): 84.7%
- % OF LEAVES WITH CANKER (Date 4): 17.59%
